Source: patent US6750015B2 (priority 2000, dated 2004)

Target: T1, PR-A (Homo sapiens, UniProt P06401)
T1 construct: expressed in transfected cells
T1 sequence (P06401 1-769 isoform P06401-2): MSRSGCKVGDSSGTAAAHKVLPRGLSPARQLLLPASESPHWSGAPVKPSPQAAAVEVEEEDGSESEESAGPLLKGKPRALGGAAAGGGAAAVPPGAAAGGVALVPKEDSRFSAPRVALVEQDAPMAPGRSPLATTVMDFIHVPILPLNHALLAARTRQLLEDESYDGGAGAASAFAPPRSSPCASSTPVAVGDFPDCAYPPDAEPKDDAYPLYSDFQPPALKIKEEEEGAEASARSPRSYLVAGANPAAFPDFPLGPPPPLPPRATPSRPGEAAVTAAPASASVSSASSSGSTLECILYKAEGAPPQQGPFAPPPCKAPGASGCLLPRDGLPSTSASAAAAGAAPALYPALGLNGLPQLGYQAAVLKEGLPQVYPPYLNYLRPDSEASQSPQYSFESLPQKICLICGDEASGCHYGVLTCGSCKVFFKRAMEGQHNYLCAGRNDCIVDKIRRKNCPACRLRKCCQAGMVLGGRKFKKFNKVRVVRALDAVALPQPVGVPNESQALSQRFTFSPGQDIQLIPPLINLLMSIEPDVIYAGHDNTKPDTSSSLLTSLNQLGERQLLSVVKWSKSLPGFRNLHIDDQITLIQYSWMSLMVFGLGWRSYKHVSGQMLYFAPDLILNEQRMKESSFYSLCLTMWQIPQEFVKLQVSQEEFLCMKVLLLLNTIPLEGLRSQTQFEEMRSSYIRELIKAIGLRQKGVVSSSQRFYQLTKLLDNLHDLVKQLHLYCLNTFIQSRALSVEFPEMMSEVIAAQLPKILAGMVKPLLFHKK
Test: Transcriptional assay: integrin alpha 6 promoter-luciferase in HeLa cells cotransfected with PR-A
Assay type: cell-based
Details: 10 nM progesterone 24 hours

- Transcription of the integrin alpha 6 promoter (luciferase): not regulated at all
Compound: CC(=O)[C@H]1CC[C@H]2[C@@H]3CCC4=CC(=O)CC[C@]4(C)[C@H]3CC[C@]12C [progesterone]
